Laboratory results: US11628160B2, “Compositions and methods for treating brain injury” (Azevan Pharmaceuticals, Inc., priority 2017, dated 2023)

Columns and labels:
Male Sprague Dawley rats [1] = assay: Edema and ventricular volumes (T2 relaxometry MRI); format: in vivo, rat; details: Treatment group; no significant difference to Control group
Description: EXAMPLE. T2 Relaxometry measurement of edema. MRI was conducted 24-28 days after the injury to characterize edematous volume in the lateral ventricles using T2 relaxometry. The time of imaging was based on the rat model used for TBI assessment by Charles River. Images are acquired using a multi-slice multi-echo (MSME) pulse sequence. The echo time (TE) is illustratively 11 ms, and 16 echoes are acquired during imaging with a recovery time (TR) of 2500 ms. Images are acquired with a field of view [FOV] 3 cm^2, data matrix=256×256×20 slices, thickness=1 mm. Values for […] relaxation time (T2) are obtained from all the slices using ParaVison 5.1 software. T2 is used to characterize the edematous volume in the lateral ventricle. The T2 values are used for segmentation and quantification of the ventricle volume. The T2 values are computed using the equation; y=A+Cexp (−t/T2) (S.D. weighted) obtained from the Paravision 5.1 software, where, A=absolute bias, C=signal intensity, t=echo time and T2=spin-spin relaxation time. The ventricle is identified as a hyperintensity on the T2 map over three 1 mm sections. The volume is calculated using a snake region growth algorithm in itk-SNAP (www.itksnap.org). The threshold is illustratively set at 6300 to 9000 as absolute pixel intensity. A point is seeded within the ventricle and the algorithm run until segmentation is complete. […]

human V1a receptor = target: T1, human V1a receptor (Homo sapiens, UniProt P37288); assay: Human vasopressin V1a receptor binding assay; details: selectivity table; read-out: inhibition data Ki, V1a
T1 construct: host or cells: CHO cells
T1 sequence (P37288 whole entry): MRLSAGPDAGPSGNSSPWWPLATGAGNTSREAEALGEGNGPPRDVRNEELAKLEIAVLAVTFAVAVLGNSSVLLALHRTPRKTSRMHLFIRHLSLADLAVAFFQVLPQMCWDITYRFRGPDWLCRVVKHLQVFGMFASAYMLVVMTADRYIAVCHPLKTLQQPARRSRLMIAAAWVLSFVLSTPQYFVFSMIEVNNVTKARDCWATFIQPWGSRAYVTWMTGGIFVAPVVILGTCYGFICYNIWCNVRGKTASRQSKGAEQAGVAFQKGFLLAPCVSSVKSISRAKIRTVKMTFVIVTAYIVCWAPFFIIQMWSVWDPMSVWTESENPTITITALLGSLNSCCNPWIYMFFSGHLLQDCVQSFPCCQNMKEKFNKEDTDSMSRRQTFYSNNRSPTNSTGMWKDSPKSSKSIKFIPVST
In short: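 Whole CHO cells expressing human V1a incubated with 1 nM 3H-AVP and 10-fold compound dilutions in 25 mM Hepes, 0.25% BSA, DMEM pH 7.0 for 45 min at 37 °C. Nonspecific binding with 100 nM unlabelled AVP. Cells SDS-lysed, scintillation counted; IC50 by curve fitting.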

Male Sprague Dawley rats [2] = assay: Resting state functional connectivity (fMRI); format: in vivo, rat; details: Treatment group
Excerpt: EXAMPLE. Resting state functional connectivity. Resting-state fMRI scan is collected using spin-echo triple-shot EPI sequence (imaging parameters: matrix size=96×96×20, TR/TE=3000/15 msec, voxel size=[…], slice thickness=1 mm. Preprocessing is illustratively accomplished by combining Analysis of Functional NeuroImages (AFNI_17.1.12, http://afni.nimh.nih.gov/afni/), FMRIB Software library (FSL, v5.0.9, http://fsl.fmrib.ox.ac.uk/fsl/), Deformable Registration via Attribute Matching and Mutual-Saliency Weighting (DRAMMS 1.4.1, https://www.cbica.upenn.edu/sbia/software/dramms/index.html) and MATLAB (Mathworks, Natick, Mass.). Brain tissue masks for resting-state functional images are manually drawn using 3DSlicer (https://www.slicer.org/) and applied for skull-stripping. Normalization is completed by registering functional data to the MRI Rat Brain Template (Ekam Solutions LLC, Boston, Mass.) using affine registration through DRAMMS. The region-to-region functional connectivity method is illustratively performed to measure the correlations in spontaneous BOLD fluctuations. A network is comprised of nodes and edges; nodes being the brain region of interest (ROI) and edges being the connections between regions. Nodes are defined using the ROIs segmented from an appropriate MRI RAT Brain Atlas. Illustratively, 171 nodes are defined. Voxel time series data are averaged in each node based on the residual images using the nuisance regression procedure. Pearson's correlation coefficients across all pairs of nodes (14535 pairs for 171 nodes) are computed for each subject among all three groups to assess the interregional temporal correlations. The r-values (ranging from −1 to 1) are z-transformed using the Fisher's Z transform to improve normality. For 171 nodes, 171×171 symmetric connectivity matrices are constructed with each entry representing the strength of edge. Group-level analysis is performed to look at the functional connectivity in controls, one hit and three hit groups. The resulting Z-score matrices from one-group t-tests are clustered using the K-nearest neighbors clustering method to identify how nodes cluster together and form resting state networks. A Z-score threshold of |Z|=2.3 is applied to remove spurious or weak node connections for visualization purposes.
Beginning on postnatal (P)70, animals are divided into 3 groups (n=6-7/group; Sham Control Group (Control, CG), Injury Group (IG), and Treatment Group (TG) and begin their head impact, and drug regimens. All groups are anaesthetized with 4% isoflurane in oxygen, and Injury group and Treatment group receive the first of two total head impacts) using a custom setup from Animal Imaging Research (AIR; Holden, Mass.) on P70. […]

With `C[C@@H](NC(=O)[C@@H](CC(=O)N1CCC(N2CCCCC2)CC1)N1C(=O)[C@@H](N2C(=O)OC[C@@H]2c2ccccc2)[C@H]1/C=C/c1cccc(I)c1)c1ccccc1` [Example 266] the “volume of lateral ventricles at the level of impact” value (Male Sprague Dawley rats [1]) was “ventricular volume returns to normal levels”, the Ki (human V1a receptor) was 1.1 nM and the “connectivity of hippocampus, Area M” value (Male Sprague Dawley rats [2]) was “hyperconnectivity compared to Injury group and Control group”. The “connectivity of ventral hippocampus, Area G” value (Male Sprague Dawley rats [2]) was “hyperconnectivity compared to Injury group and Control group”, the “functional connectivity in network circuitry associated with learning, cognition, memory, and attention” value (Male Sprague Dawley rats [2]; even compared to Control group) was “enhanced functional connectivity” and the “resting state functional connectivity network” value (Male Sprague Dawley rats [2]; 166 brain areas) was “hyperconnectivity”.
